Laboratory results published in US6565864B2, “Skin care product containing retinoids and phytoestrogens in a dual compartment package” (Unilever Home & Personal Care USA, a division of Conopco, …, priority 2000, dated 2003).
Read-outs that look alike come from different tables or passages of the source.

How the values were obtained:
[1] = Stability of retinol in aqueous ethanol in the presence of phytoestrogenic flavonoids (OD 360 nm); type: physicochemical; conditions: for Retinol degraded: 0.001 %
Procedure: Retinol was dissolved as a 10% solution in aqueous ethanol (1:1 water:ethanol). This solution was diluted to 0.001%, or approximately 30 μM). This solution gave an OD of about 0.35 absorption unit at 360 nm in a 96 well plate spectrophotometer.
Aqueous ethanolic stock solutions of the genistein, daidzein were prepared as 0.1%, 0.01% or 0.001%. To 200 μl of 0.001% retinol solution in a 96 well plate was added 20 μl of the flavonoid (i.e. 1-10 dilution) giving a final flavonoid concentration of 0.01, 0.001 and 0.0001%. The plates were mixed and an initial OD reading was taken at 360 nm. The plates were incubated at room temperature in the dark for up to 2 days and subsequent readings were taken at 8, 24 and 48 hours. The OD readings at these time points were normalized to the 0 time point reading. The retinol stability was expressed as % of retinol (OD reading) at 0 time.
The following tables show the effect of genistein and daidzein on destabilizing retinol. The experiment was done as described in methods section. The OD readings from duplicate measurements were averaged and given here.

CRABP-2 = CRABP-2 protein expression in human adult fibroblasts (dot blot immunostaining) as a measure of retinoid activity; type: cell-based; conditions: for CRABP-2 % as Control: control = 100%; for CRABP-2 production: human adult fibroblasts; for Synergy of phytoestrogen with retinoids (in words): soluble form, CRABP-2 in fibroblasts
Procedure: Human adult fibroblasts obtained from sun-protected inner arm of 25-30 year […] volunteer were used in this. Cells were grown in 1:1 DMEM/Hams F12 media containing 10% FBS, maintained at 37° C. in a 5% CO2 atmosphere under normal atmosphere oxygen tension. Third passage adult fibroblasts were grown in DMEM media with 10% FBS in 12-well plates at a seeding density of 2500 cells/ml/well. The cells at 80% confluence were rinsed in serum free and phenol red free (PRF) DMEM media twice. Pre-treatment with phyto-compounds for 4 hours was conducted and then dosed with retinoids and was incubated for 48 hours. After the incubation, the wells were washed twice with 1×PBS and the cell monolayer was harvested in 100 μl cell lysis buffer (contains 1×PBS, 1% Triton X, 0.5% sodium deoxycholate, 0.1% SDS containing protease inhibitor (10 mg/ml PMSF in isopropanol, 10 μl/ml). The suspension was spun at 14000 rpm for 10 minutes, the supernatant collected and an aliquot of this supernatant was used for protein quantification. Protein concentration was determined using Pierce protein kit. The remainder of 100 μl supernatant (cell lysate) was denatured in a mixture of 40 μl sample buffer (NOVEX) and 0.5% Beta mercaptoethanol (BME) and by boiling the sample for 5 minutes.
(b) Detection of Cellular Retinoic Acid Binding Protein 2 (CRABP-2)
These proteins act in regulating the intracellular concentration of retinoids by acting as both storage or shuttle proteins in retinoid metabolism. High or low levels of retinoids cause cell damage, including cell death, therefore regulation of constant levels of retinoids and its binding proteins are very critical for cell survival. The levels of this protein are regulated by the amount of retinoic acid within the cells. Higher cellular levels of retinoids increase the expression of CRABP-2. Therefore, the amount of this protein in the cells, is a measure of the retinoid activity of the cells. Skin cells contain high levels of CRABP-2 both in the epidermis and the dermis. CRABP-2 response to retinoid administration in fibroblasts in vitro is used as a reproducible measure of retinoid bioactivity that predict human skin responses. […] Increase in CRABP-2 is also associated with increased epidermal differentiation, and dermal retinoid action. Therefore, in these studies CRABP-2 expression of fibroblasts was used as a measure of retinoid activity leading to increased epidermal differentiation (skin conditioning and dry skin benefit) and dermal collagen and extracellular matrix synthesis (anti-aging, anti-wrinkling benefits).
To measure the levels of CRABP-2 in the fibroblasts, the equal amount of protein of cell supernatant were loaded onto nitrocellulose blots in a dot blot apparatus as instructed by the manufacturer, and immunostaining was carried out using monoclonal antibodies to CRABP-2 according to standard procedures. The CRABP-2 protein band was visualized in the Dot Blots using the chemiluminescence system obtained from Santa Cruz Biotechnology (SantaCruz, Calif.). The bands in the film were quantitated by dens tometric scanning, the data from the triplicate samples were calculated as % of control and expressed in the following tables as % increase over control (with control as 100%) +/−SD triplicates.

[2] = 100 nM retinoid alone, 48 hours

With `O=c1c(-c2ccc(O)cc2)coc2cc(O)ccc12` [Daidzein] as the compound, how does the “Effect of the flavonoid on retinol stability (in words)” value [1] read?
The value was “marked increases in the instability of retinol”.

And the “CRABP-2 % as Control” value (CRABP-2; 1 μM phytoestrogen alone)?
The value was 513 +/− 227%.

And the CRABP-2 production (CRABP-2; 1 μM phytoestrogen alone)?
Its CRABP-2 production is 1.49 +/− 0.66.

And the “Synergy of phytoestrogen with retinoids (in words)” value (CRABP-2)?
The value was “stimulate retinoid activity in a synergistic manner”.

For `CC(=O)OC/C=C(C)/C=C/C=C(C)/C=C/C1=C(C)CCCC1(C)C` [Retinyl Acetate], which “CRABP-2 % as Control” value (CRABP-2; 100 nM retinoid alone) is on record?
Its value is 209 +/− 118%.

And the CRABP-2 production (CRABP-2; [2])?
Its CRABP-2 production is 0.60 +/− 0.32.

What does the source list for `O=c1c(-c2ccc(O)cc2)coc2cc(O)cc(O)c12` [Genistein]?
Effect of the flavonoid on retinol stability (in words) ([1]; 0.0001-0.01% flavonoid with 0.001% retinol): marked increases in the instability of retinol; CRABP-2 stimulation (in words) (CRABP-2; 1 μM alone, delivered in DMSO: ethanol): stimulated CRABP-2 significantly; CRABP-2 % as Control (CRABP-2; 1 μM phytoestrogen alone): 655 +/− 247%; CRABP-2 production (CRABP-2; 1 μM phytoestrogen alone): 1.9 +/− 0.71; Synergy of phytoestrogen with retinoids (in words) (CRABP-2): stimulate retinoid activity in a synergistic manner

Which “CRABP-2 % as Control” value (CRABP-2; 100 nM retinoid alone) does the source give for `CCCCC/C=C\C/C=C\CCCCCCCC(=O)OC/C=C(C)/C=C/C=C(C)/C=C/C1=C(C)CCCC1(C)C` [Retinyl Linoleate] here?
The value was 181 +/− 110%.

And the CRABP-2 production (CRABP-2; [2])?
The CRABP-2 production was 0.52 +/− 0.3.

With `CC1=C(/C=C/C(C)=C/C=C/C(C)=C/CO)C(C)(C)CCC1` [Retinol] as the compound, how does the Retinol degraded ([1]; 8 h) read?
The Retinol degraded was 8%.

And the Retinol degraded ([1]; 24 h)?
The Retinol degraded was 14%.

And the Retinol degraded ([1]; 48 h)?
The Retinol degraded was 19%.

Which results are given for `CC1=C(/C=C/C(C)=C/C=C/C(C)=C/C(=O)O)C(C)(C)CCC1` [Retinoic acid, reference compound]?
CRABP-2 % as Control (CRABP-2; 1 nM retinoid alone): 335 +/− 162%; CRABP-2 production (CRABP-2; 1 nM retinoid alone, 48 hours): 0.97 +/− 0.47; CRABP-2 % as Control (CRABP-2; 10 nM retinoid alone): 428 +/− 101%; CRABP-2 production (CRABP-2; 10 nM retinoid alone, 48 hours): 1.24 +/− 0.29

Which results are given for `CCCCCCCCCCCCCCCC(=O)OC/C=C(C)/C=C/C=C(C)/C=C/C1=C(C)CCCC1(C)C` [Retinyl Palmitate]?
CRABP-2 % as Control (CRABP-2; 100 nM retinoid alone): 434 +/− 177%; CRABP-2 production (CRABP-2; [2]): 1.26 +/− 0.51
